Earlier results as cited in US20210307362A1, “Supplement for animal feed for sucking pigs” (Proviron Holding N.V., priority 2018, published 2021).

CCCC(=O)OCC(COC(=O)CCC)OC(=O)CCC [Glycerol tri butyrate]
solubility in water: insoluble in water
